{"source": "patent US20250376481A1", "about": "“POLYCYCLIC CARBAMOYL PYRIDONE DERIVATIVE, PREPARATION METHOD THEREFOR AND PHARMACEUTICAL COMPOSITION THEREOF” (NANJING AIDEA PHARMACEUTICAL TECHNOLOGY CO., LTD., priority 2021, published 2025)", "key": {"HIV-1 integrase": {"biological_target": "HIV-1 integrase (Human immunodeficiency virus type 1 group M subtype B, UniProt P04585)", "experiment": "Integrase activity test (HIV-1 Integrase Assay Kit EZ-1700)", "experimental": "A non-radioactive assay method, an integrase assay kit, was used to measure integrase activity quantitatively.\nEach component was prepared according to the instructions of the kit; preparation of test sample, 5 mM DMSO solution was prepared for backup, working solution was prepared according to the initial final concentration determined at the time of method establishment, with a 4-fold gradient dilution and 10 concentrations.\n• (1) The working solution of sample was prepared according to the initial concentration determinated during the methodology establishment process; • (2) Reagents were prepared according to the methods provided in the kit; • (3) DS DNA coating—blocking—addition of integrase solution—addition of sample—addition of TS DNA—addition of HRP antibody-addition of TMB peroxidase substrate—TMB termination reaction-detection of light absorption value at 450 nm.\nThe software Graphpad Prism 8.0 was applied and the calculation equation of Log (inhibitor) vs. response variable slope was used to fit the IC50 curve."}, "[1]": {"experiment": "PK test of compounds (mouse)", "type": "in vivo, ICR mice", "method": "The mice were not fed until 5 pm on the day before administration, and fasted overnight with water. The mice in Group IV were administered with 2 mg/kg, while those in Group PO were administered with 10 mg/kg. Feeding was resumed 2 hours after administration. For mice administered by gavage, 20 μL blood was collected from the saphenous vein in calf before administration and 0.25, 0.5, 1, 2, 4, 8, and 24 hours after administration, respectively, and placed in EDTA-K2 anticoagulant blood collection tubes, and then the blood would be placed on ice until centrifuged to obtain plasma samples. The plasma samples were centrifuged at 4° C. (3500 rpm, 10 min), and after separation, the samples were transferred to EP tubes and stored at −80° C. for detection. For mice admistrated by intravenous injection, 20 μL blood was collected from the saphenous vein in calf before administration and 0.0833, 0.25, 0.5, 1, 2, 4, 8 and 24 hours after administration, respectively, and placed in EDTA-K2 anticoagulant blood collection tubes, and then the blood would be placed on ice until centrifuged to obtain a plasma sample. The plasma samples were centrifuged at 4° C. (3500 rpm, 10 min), and after separation, the samples were transferred to EP tubes and stored at −80° C. for detection. The level of tested compounds in blood plasma of mice, who had orally administrated with different concentrations of drugs were determinated: 10 μL mouse blood at each time point after administration was taken, 100 μL methanol containing an internal standard (100 ng/mL) was added, vortex mixed for 1 minute, centrifuged at 4° C. (12000 rmp, 5 minutes), and 1 μL supernatant was taken from the plasma samples for LC-MS/MS analysis."}, "HIV-1 pseudovirus": {"test_system": "HIV-1 pseudovirus", "experiment": "HIV-1 pseudovirus infection test (antiviral activity, luciferase)", "type": "cell-based", "conditions": "Human immunodeficiency virus 1, HEK-293T, 72 h", "method": "• Virus: The HIV-1 pseudovirus used in this experiment was a replication deficient virus, which is constructed by WuXi AppTec. • HEK 293T cell line was purchased from ATCC, and Item No. is CRL-11268. Cells were cultured in DMEM medium with 10% fetal bovine serum and 1% double antibody. • Reagents\nOn the first day, HEK 293T cells were inoculated into a 96 well test plate at the density of 55000 cells per well and […] per well, and incubated overnight in a 5% CO2 and 37° C. incubator.\nOn the second day, the tested compounds (compounds provided in the example of the present invention) and the control compounds were diluted 4-fold with cell culture medium for a total of 8 concentration points, and 50 μL diluted compounds were added to each well, and each well was performed duplicate.\nSubsequently, the HIV-1 pseudovirus was diluted to 100 TCID50/50 μL with cell culture medium, and 50 μL diluted virus was added to each well.\nCell Control (cells, no compound treatment or virus infection) and virus control (cells infected with virus, no compound treatment) were set up. The final initial test concentration of the tested compounds and control compounds was 1000 nM (Table 1), and the amount of virus infection was 100 TCID50 per well. The total volume of cell culture medium was 200 μL per well, and the final concentration of DMSO in the culture medium was 0.5%.\nThe cells were cultured in a 5% CO2 and 37° C. incubator for additional 3 days.\nOn the fifth day, in the antiviral activity test plates, 100 μL cell supernatant was sucked away from each well, 100 μL 2X luciferase reporter gene assay reagent Britellite plus was added in dark. The luciferase activity in each well of the test plates was detected by Envision. The data was used for sample antiviral activity analysis.\nDose-response curve was drawn through GraphPad Prism software. The calculation equations for antiviral activity (% Inhibition) and cell viability (% cell viability) were as follow:\nThe values of EC50 and CC50 were analyzed by GraphPad Prism (version 5) software, and nonlinear fitting analysis was used for inhibitory activity and cell viability of the compounds, and the fitting method was “log (inhibitor) vs. response—Variable slope”.\n3. The HIV-1 pseudovirus experiment was applied to determinate the in vitro antiviral activity and cytotoxicity of the tested compound on HEK 293T cells, and the experimental results were shown in the table below."}}, "data": [{"smiles": "C[C@H]1N2C(=O)c3c(O)c(=O)c(C(=O)NCc4ccc(F)cc4F)cn3C[C@@H]2OCC12CC2", "note": "[Compound 1]", "values": [{"measurement": "IC50", "setting": "HIV-1 integrase", "value": 9.19, "unit": "nM"}, {"measurement": "bioavailability (in words)", "setting": "[1]; PK test in mice", "value": "good bioavailability"}, {"measurement": "half-life", "setting": "[1]; male, mouse, plasma, ICR mice, PO 10 mg/kg", "value": "4.37 ± 0.47", "unit": "h"}, {"measurement": "bioavailability", "setting": "[1]; male, mouse, plasma, ICR mice, PO 10 mg/kg (IV 2 mg/kg)", "value": 57, "unit": "%"}, {"measurement": "EC50", "setting": "HIV-1 pseudovirus", "value": 1.08, "unit": "nM"}]}]}
